Assay results as given in paper PMC12947280, “An Antifungal with a Novel Mechanism of Action Discovered via Resistance Gene-Guided Genome Mining” (ACS Central Science, 2026).
≈ marks a conversion by molar mass, not a printed value.

Tests used:
ScALS = biological target: T1, ScALS (Saccharomyces cerevisiae, UniProt P07342); assay: Intact protein mass spectrometry; format: binding; details: 10 μM, 30 min
T1 construct: made in house; host or cells: E. coli BL21 (DE3), pET28a-ScILV2
Text: We next characterized the structural basis for binding of 1 to ALS. Given the strained structure and the observed tight binding kinetics, we hypothesized that 1 may be binding covalently. Analysis of ALS from both AfALS and ScALS by intact protein mass spectrometry yielded traces with multiple proteoforms for both proteins. […] Limited proteolysis followed by peptide mapping localized the covalent attachment to the 239[…]258 peptide of ScALS with Lys251 and Asp252 (equivalent to Lys310 and Asp311 in AfALS) serving as the most likely attachment sites (Figure S7).
Biomek FX, Beckman Coulter Fullerton CA) were used to conduct serial dilutions and liquid […]
Solutions of 1 were added in an 11 point 2x serial dilution in DMSO with a maximum tested concentration of 32 μg/ml in the culture medium. Drug solution was added at 1% v/v into 200 μl […]
After digestion, the peptide mixture was immediately analysed by LC-MS/MS using a Waters I-class UPLC equipped with an ACQUITY UPLC BEH C18 column (2.1x50 mm, 1.7 µm, Waters) at 50 °C coupled to a Waters Synapt G2Si MS. […]

S. cerevisiae ALS P192S = biological target: T2, S. cerevisiae ALS P192S (Saccharomyces cerevisiae, UniProt P07342, P192S); assay: biochemical; format: biochemical
T2 construct: His6 (followed by a TEV protease site, pET28a) (N); made in house; host or cells: E. coli (inferred from the ScALS method)
T2 sequence (P07342 58-687 P192S): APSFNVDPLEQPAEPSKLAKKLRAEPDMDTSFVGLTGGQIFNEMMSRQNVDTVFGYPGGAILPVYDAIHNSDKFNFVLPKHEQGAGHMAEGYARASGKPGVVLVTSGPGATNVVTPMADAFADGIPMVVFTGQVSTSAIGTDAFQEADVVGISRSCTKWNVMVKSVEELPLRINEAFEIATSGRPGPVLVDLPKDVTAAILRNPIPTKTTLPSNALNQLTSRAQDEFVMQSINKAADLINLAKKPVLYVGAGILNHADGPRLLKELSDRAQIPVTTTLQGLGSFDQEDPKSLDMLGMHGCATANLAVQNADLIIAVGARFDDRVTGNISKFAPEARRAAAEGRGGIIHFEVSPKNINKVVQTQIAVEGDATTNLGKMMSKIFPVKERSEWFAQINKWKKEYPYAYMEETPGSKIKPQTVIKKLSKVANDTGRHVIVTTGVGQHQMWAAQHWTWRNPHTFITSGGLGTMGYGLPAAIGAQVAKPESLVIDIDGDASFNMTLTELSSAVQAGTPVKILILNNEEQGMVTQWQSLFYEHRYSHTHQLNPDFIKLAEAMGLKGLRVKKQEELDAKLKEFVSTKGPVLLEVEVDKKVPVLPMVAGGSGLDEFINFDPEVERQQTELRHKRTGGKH
Description: (§1) ALS biochemical assay (ScALS)
(§2) Saccharomyces cerevisiae acetohydroxyacid synthase (ScALS) lacking the N-terminal […]
(§3) Escherichia coli as an N-terminally His6-tagged protein. Assays (50 µL final volume) contained […]
(§4) adenine dinucleotide, 10 mM MgCl2, 1 mM DTT, 1% DMSO (± inhibitor) in 500 mM K2HPO4 buffer at pH 7.5. Following a 30 min pre-incubation of the enzyme and inhibitor in the reaction mixture at room temperature, reactions were initiated with the addition of pyruvate. ScALS assays were carried out at 30 °C for 60 min. The reaction was quenched with the addition of 5 µL of 10% H2SO4 (v/v in deionized water). Reactions were incubated at 60 °C at 800 rpm in an […]
(§5) to acetoin. Subsequently, the concentration of acetoin was determined by the addition of 7.5 µL 6 M NaOH, 25 µL 0.5% creatine (w/v in deionized water), and 25 µL 4% 1-naphthol (w/v in 2.5 M NaOH). This mixture was incubated at 60 °C at 800 rpm in an incubating microplate shaker for […]
(§6) 40 µL of this reaction mixture was transferred to a half area UV-star 96-well plate (Grenier) and the absorbance at 525 nm was measured on a Spark multimode plate reader (Tecan). The percent inhibition was calculated by the comparison of the signal to DMSO (0% […]
(§7) IC50 values were calculated from the dose response curves using Prism 9 (four parameter, variable slope). […]
(§8) Expression and purification of ScALS
(§9) S. cerevisiae ILV2 (the gene or ScALS) lacking the N-terminal mitochondrial-localization tag

[1] = biological target: T3, S. cerevisiae ALS wild type (Saccharomyces cerevisiae, UniProt P07342); assay: ALS biochemical assay (ScALS), wild type
T3 construct: made in house; host or cells: E. coli BL21 (DE3), pET28a-ScILV2
T3 sequence (P07342 58-687): as the sequence (P07342 58-687 P192S) above, with S135P counted along it
Description: as §1, §2, §3, §4, §5, §6, §7, §8, §9

S. cerevisiae ALS [2] = biological target: T4, S. cerevisiae ALS (Saccharomyces cerevisiae, UniProt P07342); assay: FAD cofactor reoxidation upon incubation with ALS; format: biochemical; details: in contrast to accumulative inhibitors 2 and 3
T4 construct: made in house; host or cells: E. coli BL21 (DE3), pET28a-ScILV2
T4 sequence (P07342 58-687): as the sequence (P07342 58-687 P192S) above, with S135P counted along it

physchem = details: aqueous with cosolvent or surfactant or cyclodextrin, kinetic from dmso stock
S. cerevisiae ALS [3] = biological target: T4, S. cerevisiae ALS; assay: Kinetic characterization: IC50 vs concentration of active ALS; format: biochemical; details: IC50 equal to half the concentration of active ALS

T1 sequence (P07342 58-687): as the sequence (P07342 58-687 P192S) above, with S135P counted along it

## CCCC1C(C)=CC2CC=CC3(C)C2C1C(=O)C31C(=O)NC(CCCO)C1=O (centres unmarked) [compound 1]
ScALS
  covalent modification of ScALS (intact mass shift): mass shifts consistent with covalent addition
S. cerevisiae ALS P192S
  IC50: 66 ± 9 nM
  shift in potency, P192S mutant ScALS compared to wild-type ScALS: 4 fold
[1]; Figure S6
  potency against ScALS compared with diastereomer 13: significantly more potent
[1]; recombinant ScALS, read-out: S. cerevisiae ALS IC50 Wild type
  IC50: 15 ± 1 nM
S. cerevisiae ALS [2]
  FAD reoxidation upon treatment: no indication of FAD reoxidation
physchem
  solubility kinetic: 260 µM (≈ 100 µg/mL)
S. cerevisiae ALS [3]
  binding kinetics (IC50 vs concentration of active ALS): tight-binding kinetics
